Measured values reported in paper PMC5082894 (PLoS ONE, 2016).

Assays:
HIV-1 LAI = assay: MAGI assay, HIV-1 LAI; assay type: cell-based; conditions: MAGI cells, 48 h, mean of triplicate ± SD
Description: (§1) Briefly, target cells (HeLa CD4/CCR5-LTR/β-gal; 10^4/well) were plated in 96-well flat microtiter culture plates. […] The test drugs were added initially and viruses were immediately inoculated onto the cells. Forty-eight hours after viral exposure, all blue cells in each well were counted. The cytotoxicity of the compound was determined by the MTT method as previously described. All experiments were performed in triplicate and AZT was used as reference anti-HIV-1 molecule.

[1] = test system: HeLa CD4/CCR5-LTR/β-gal cells; assay: Cytotoxicity by MTT method (MAGI cells); assay type: cell-based; conditions: MTT, mean of triplicate ± SD
Description: as §1

HIV-1 Ba-L (B-R5) = assay: PBMC antiviral assay (RT activity), HIV-1 Ba-L; assay type: cell-based; conditions: PHA-P-activated PBMCs, 125 TCID50, day 7, RT activity
Description: (§2) In order to confirm antiretroviral activity of the compounds, using a cell model closer to the pathophysiology, Peripheral Blood Mononuclear Cells (PBMCs) were separated from a buffy-coat from healthy HIV-, HCV-, HBV-seronegative blood donors by Ficoll-Hypaque density gradient centrifugation. The PBMCs were activated by incubation with 1 μg/ml phytohemagglutinin-P (PHA-P; Difco Laboratories) for three days in RPMI 1640 medium supplemented with 10% heat-inactivated fetal calf serum (FCS, +56 ◦C for 45 min), 2mM l-glutamine and a 1% antibiotic cocktail (penicillin, streptomycin, neomycin). After this mitogen activation, PBMCs were cultivated in the same culture medium supplemented with recombinant human interleukin-2 (rHuIL-2; 20 IU/mL) and treated and/or infected. […] All these viruses were amplified in vitro with PHA-P-activated blood mononuclear cells and 50% tissue culture infectious doses (TCID50) were calculated using Kärber’s formula [37], after limited-dilution titration. […] Viral replication was measured by quantifying reverse transcriptase (RT) activity in the cell culture supernatants using the Lenti RT Activity Kit (Cavidi) and AZT was used as reference anti-HIV-1 molecule. EC50 were then calculated and expressed in μM.

HIV-1 NL4-3 = assay: MAGI assay, HIV-1 NL4-3; assay type: cell-based; conditions: MAGI cells, 48 h, mean of triplicate ± SD
Description: as §1

HIV-1 92UG029 (A-X4) = assay: PBMC antiviral assay (RT activity), HIV-1 92UG029; assay type: cell-based; conditions: PHA-P-activated PBMCs, 125 TCID50, day 7, RT activity
Description: as §2

[2] = test system: HIV-1 96USHIPS4 (B-X4/R5); assay: PBMC antiviral assay (RT activity), HIV-1 96USHIPS4; assay type: cell-based; conditions: PHA-P-activated PBMCs, 125 TCID50, day 7, RT activity
Description: as §2

HIV-1 92HT599 (B-X4) = assay: PBMC antiviral assay (RT activity), HIV-1 92HT599; assay type: cell-based; conditions: PHA-P-activated PBMCs, 125 TCID50, day 7, RT activity
Description: as §2

HIV-1 LAI (B-X4) = assay: PBMC antiviral assay (RT activity), HIV-1 LAI; assay type: cell-based; conditions: PHA-P-activated PBMCs, 125 TCID50, day 7, RT activity
Description: as §2

PBMCs = assay: Cytotoxicity in PBMCs; assay type: cell-based, human; conditions: PBMCs
HIV-1 98IN017 (C-X4) = assay: PBMC antiviral assay (RT activity), HIV-1 98IN017; assay type: cell-based; conditions: PHA-P-activated PBMCs, 125 TCID50, day 7, RT activity
Description: as §2

EC50 (HIV-1 LAI): 12 ± 8 nM
EC50 (HIV-1 Ba-L (B-R5)): 15 ± 21 nM
EC50 (HIV-1 NL4-3): 21 ± 11 nM
EC50 (HIV-1 92UG029 (A-X4)): 9 ± 4 nM
EC50 [2]: 18 ± 10 nM
EC50 (HIV-1 92HT599 (B-X4)): 12 ± 2 nM
EC50 (HIV-1 LAI (B-X4)): 12 ± 3 nM
EC50 (HIV-1 98IN017 (C-X4)): 6 ± 2 nM
Structure (SMILES): Cc1cn([C@H]2C[C@H](N=[N+]=[N-])[C@@H](CO)O2)c(=O)[nH]c1=O [AZT, reference compound]
CC50 [1]: > 100 µM
CC50 (PBMCs): > 1000 nM
